The values that follow are results of earlier work, collected in US20240307296A1, “SUBCUTANEOUS BIODEGRADABLE NALTREXONE IMPLANT AND ACCOMPANYING BEHAVIORAL PROGRAM FOR WEIGHT LOSS IN A PATIENT” (Biocorrx, priority 2017, published 2024).

This series concerns fasting insulin levels. As to conditions: in vivo.

As for `O=C1CC[C@@]2(O)[C@H]3Cc4ccc(O)c5c4[C@@]2(CCN3CC2CC2)[C@H]1O5` [Naltrexone, N-Cyclopropylmethylnoroxymorphone], the “Lowering of fasting insulin levels” value is “up to 40%”.
